In ChEMBL document CHEMBL3124792, “Discovery and preclinical characterization of the cyclopropylindolobenzazepine BMS-791325, a potent allosteric inhibitor of the hepatitis C virus NS5B polymerase” (J Med Chem, 2014):
Converted amounts (≈) assume the structure as drawn.

Key:
[1] = target: T1, Nuclear receptor subfamily 1 group I member 2 (Homo sapiens, UniProt O75469); experiment: Transactivation of human PXR expressed in human HepG2 cells by luciferase reporter gene assay; format: cell-based
T1 sequence (O75469 whole entry): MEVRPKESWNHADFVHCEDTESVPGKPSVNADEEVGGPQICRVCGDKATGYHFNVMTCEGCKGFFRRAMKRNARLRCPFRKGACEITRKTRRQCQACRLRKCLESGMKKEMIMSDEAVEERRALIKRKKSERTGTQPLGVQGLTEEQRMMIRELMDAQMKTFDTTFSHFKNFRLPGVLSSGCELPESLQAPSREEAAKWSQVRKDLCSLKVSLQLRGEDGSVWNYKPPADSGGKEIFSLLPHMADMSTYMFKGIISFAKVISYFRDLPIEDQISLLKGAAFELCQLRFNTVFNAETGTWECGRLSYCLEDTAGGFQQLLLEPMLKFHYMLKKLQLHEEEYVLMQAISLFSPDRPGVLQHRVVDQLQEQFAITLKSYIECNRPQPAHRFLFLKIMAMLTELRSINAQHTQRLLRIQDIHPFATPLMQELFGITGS

[2] = target: Cytochrome P450 3A4 (Homo sapiens, UniProt P08684); experiment: Inhibition of CYP3A4 in human liver microsomes using benzyloxyresorufin as substrate after 30 mins in presence of NADPH; format: ADME
[3] = Permeability of the compound at pH 7.4 by PAMPA; format: physicochemical; settings: read-out: permeability
[4] = target: Sodium channel protein type 5 subunit alpha (Homo sapiens, UniProt Q14524); experiment: Inhibition of human NaV1.5 expressed in HEK293 cells by fluorescence-based thallium flux assay; format: cell-based
[5] = Solubility of the compound in amorphous form in phosphate buffer at pH 6.5; format: physicochemical
[6] = target: Voltage-gated inwardly rectifying potassium channel KCNH2 (Homo sapiens, UniProt Q12809); experiment: Inhibition of human ERG by fluorescence-based thallium flux assay
[7] = target: Cytochrome P450 2C9 (Homo sapiens, UniProt P11712); experiment: Inhibition of CYP2C9 in human liver microsomes after 30 mins in presence of NADPH; format: ADME
[8] = tested on: Hepatitis C virus; experiment: Antiviral activity against Hepatitis C virus H77c genotype 1a infected in human HuH7 cells after 3 days by FRET assay; format: functional, organism-based, Hepacivirus hominis; settings: genotype 1a H77, Huh-7, 72 h
[9] = target: T2, Cytochrome P450 1A2 (Homo sapiens, UniProt P05177); experiment: Inhibition of CYP1A2 in human liver microsomes after 30 mins in presence of NADPH; format: ADME
T2 sequence (P05177 whole entry): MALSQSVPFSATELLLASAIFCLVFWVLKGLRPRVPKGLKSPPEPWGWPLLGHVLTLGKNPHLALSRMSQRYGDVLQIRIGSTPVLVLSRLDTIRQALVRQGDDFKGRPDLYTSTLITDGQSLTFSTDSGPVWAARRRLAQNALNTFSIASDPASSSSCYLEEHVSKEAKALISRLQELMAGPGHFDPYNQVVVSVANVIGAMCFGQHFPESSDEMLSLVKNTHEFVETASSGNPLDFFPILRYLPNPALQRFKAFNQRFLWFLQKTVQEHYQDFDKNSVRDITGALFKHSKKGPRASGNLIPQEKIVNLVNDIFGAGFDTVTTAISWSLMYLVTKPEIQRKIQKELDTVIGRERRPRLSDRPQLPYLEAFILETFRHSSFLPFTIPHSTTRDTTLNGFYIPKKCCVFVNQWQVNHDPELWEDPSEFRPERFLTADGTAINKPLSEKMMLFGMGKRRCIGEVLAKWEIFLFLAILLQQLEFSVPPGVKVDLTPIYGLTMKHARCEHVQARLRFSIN

[10] = target: Cytochrome P450 2C19 (Homo sapiens, UniProt P33261); experiment: Inhibition of CYP2C19 in human liver microsomes after 30 mins in presence of NADPH; format: ADME
[11] = tested on: Hepatitis C virus; experiment: Antiviral activity against Hepatitis C virus Con1 genotype 1b infected in human HuH7 cells after 3 days by FRET assay; format: functional, organism-based, Hepacivirus hominis; settings: isolate Con1, Huh-7, 72 h
[12] = tested on: HepG2; experiment: Cytotoxicity against human HepG2 cells; format: cell-based
[13] = target: Cytochrome P450 2D6 (Homo sapiens, UniProt P10635); experiment: Inhibition of CYP2D6 in human liver microsomes after 30 mins in presence of NADPH; format: ADME
[14] = tested on: Hepatitis C virus; experiment: Antiviral activity against Hepatitis C virus Con1 genotype 1b infected in human HuH7 cells after 3 days by FRET assay in presence of 40% human serum; format: functional, organism-based, Hepacivirus hominis; settings: isolate Con1, Huh-7, 72 h
[15] = target: RNA-directed RNA polymerase (Hepacivirus hominis, UniProt O39930, P495A); experiment: Inhibition of HCV Con1 genotype 1b NS5B RNA dependent RNA polymerase P495A mutant-mediated incorporation of radiolabeled nucleotides by scintillation proximity assay; design: species or system Hepatitis C virus (isolate Con1)
[16] = Cytotoxicity against human HuH7 cells by Alamar blue assay; format: cell-based; settings: Huh-7 cells
[17] = Inhibition of HCV Con1 genotype 1b recombinant wild-type NS5B polymerase-mediated incorporation of radiolabeled nucleotides by scintillation proximity assay; design: species or system Hepatitis C virus (isolate Con1)
[18] = tested on: Liver microsome; settings: human, microsomes
[19] = tested on: Liver microsome; settings: rat, microsomes
[20] = target: T3, PXR (NR1I2) (Homo sapiens, UniProt O75469); experiment: Transactivation of human PXR expressed in human HepG2 cells by luciferase reporter gene assay relative to control; format: cell-based; settings: HepG2 cells expressing human PXR, read-out: %max
T3 sequence (O75469 whole entry): T1 sequence (O75469 whole entry)

[21] = Plasma concentration in rat at 10 mg/kg, po after 4 hrs; format: ADME, organism-based; design: dose 10 mg/kg, route oral
[22] = Drug uptake in rat liver at 5 mg/kg, iv after 4 hrs; format: ADME, organism-based; design: dose 5 mg/kg, route intravenous; settings: read-out: Drug uptake
[23] = AUC (0 to 4 hrs) in rat at 5 mg/kg, iv; format: ADME, organism-based; design: time < 4 hr, dose 5 mg/kg, route intravenous; settings: plasma
[24] = Plasma concentration in rat at 5 mg/kg, iv after 4 hrs; format: ADME, organism-based; design: dose 5 mg/kg, route intravenous
[25] = AUC (0 to 4 hrs) in rat at 10 mg/kg, po; format: ADME, organism-based; design: time < 4 hr, dose 10 mg/kg, route oral; settings: plasma
[26] = Plasma clearance in rat at 5 mg/kg, iv; format: ADME, organism-based; design: dose 5 mg/kg, route intravenous
[27] = Drug uptake in rat liver at 10 mg/kg, po after 4 hrs; format: ADME, organism-based; design: dose 10 mg/kg, route oral; settings: read-out: Drug uptake

Chain of RNA-directed RNA polymerase (O39930 entry or part of it P495A): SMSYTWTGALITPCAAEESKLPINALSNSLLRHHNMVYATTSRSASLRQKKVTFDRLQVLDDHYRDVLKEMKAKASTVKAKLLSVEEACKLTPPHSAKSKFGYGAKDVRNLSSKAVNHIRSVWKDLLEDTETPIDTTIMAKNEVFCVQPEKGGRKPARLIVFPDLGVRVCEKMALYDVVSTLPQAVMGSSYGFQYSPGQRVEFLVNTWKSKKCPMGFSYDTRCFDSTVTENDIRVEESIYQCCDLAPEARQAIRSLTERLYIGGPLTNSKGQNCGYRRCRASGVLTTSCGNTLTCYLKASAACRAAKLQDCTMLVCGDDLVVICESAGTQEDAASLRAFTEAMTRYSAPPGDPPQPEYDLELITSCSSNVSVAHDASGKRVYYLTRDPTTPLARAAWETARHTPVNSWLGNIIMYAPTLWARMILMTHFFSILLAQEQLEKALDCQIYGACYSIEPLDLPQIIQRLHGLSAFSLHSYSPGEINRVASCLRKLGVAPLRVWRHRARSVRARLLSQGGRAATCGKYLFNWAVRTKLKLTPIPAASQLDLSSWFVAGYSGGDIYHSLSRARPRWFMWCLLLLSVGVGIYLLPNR
Chain of Voltage-gated inwardly rectifying potassium channel KCNH2 (Q12809 whole entry): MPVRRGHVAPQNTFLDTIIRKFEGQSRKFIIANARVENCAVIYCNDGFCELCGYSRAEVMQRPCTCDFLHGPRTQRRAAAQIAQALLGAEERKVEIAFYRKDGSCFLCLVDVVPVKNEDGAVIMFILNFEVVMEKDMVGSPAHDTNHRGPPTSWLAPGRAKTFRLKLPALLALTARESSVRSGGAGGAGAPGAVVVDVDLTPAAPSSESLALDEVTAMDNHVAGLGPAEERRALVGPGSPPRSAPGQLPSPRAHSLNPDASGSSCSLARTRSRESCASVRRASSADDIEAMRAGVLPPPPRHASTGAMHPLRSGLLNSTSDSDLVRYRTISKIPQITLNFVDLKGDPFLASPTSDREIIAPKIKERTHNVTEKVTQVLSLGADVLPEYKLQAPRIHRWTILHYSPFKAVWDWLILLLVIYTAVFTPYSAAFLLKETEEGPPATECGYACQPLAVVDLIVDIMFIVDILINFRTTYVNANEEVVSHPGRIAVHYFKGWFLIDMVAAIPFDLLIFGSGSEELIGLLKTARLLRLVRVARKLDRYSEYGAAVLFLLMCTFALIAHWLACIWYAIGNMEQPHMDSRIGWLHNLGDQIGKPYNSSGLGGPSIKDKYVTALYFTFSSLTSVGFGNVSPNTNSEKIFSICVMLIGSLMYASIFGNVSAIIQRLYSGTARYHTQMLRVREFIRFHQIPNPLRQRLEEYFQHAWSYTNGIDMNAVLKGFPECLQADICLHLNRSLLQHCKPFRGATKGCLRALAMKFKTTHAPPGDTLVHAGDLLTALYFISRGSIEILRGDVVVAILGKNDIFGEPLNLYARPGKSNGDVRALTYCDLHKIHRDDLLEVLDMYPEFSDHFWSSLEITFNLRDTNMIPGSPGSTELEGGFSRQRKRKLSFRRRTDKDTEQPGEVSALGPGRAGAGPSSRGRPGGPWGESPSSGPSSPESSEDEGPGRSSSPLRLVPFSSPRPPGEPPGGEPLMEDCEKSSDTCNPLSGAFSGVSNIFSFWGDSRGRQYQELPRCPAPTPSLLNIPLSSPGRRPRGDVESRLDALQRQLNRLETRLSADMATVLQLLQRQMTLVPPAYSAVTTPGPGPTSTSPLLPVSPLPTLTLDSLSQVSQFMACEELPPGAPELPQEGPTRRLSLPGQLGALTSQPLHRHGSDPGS
Chain of Cytochrome P450 3A4 (P08684 whole entry): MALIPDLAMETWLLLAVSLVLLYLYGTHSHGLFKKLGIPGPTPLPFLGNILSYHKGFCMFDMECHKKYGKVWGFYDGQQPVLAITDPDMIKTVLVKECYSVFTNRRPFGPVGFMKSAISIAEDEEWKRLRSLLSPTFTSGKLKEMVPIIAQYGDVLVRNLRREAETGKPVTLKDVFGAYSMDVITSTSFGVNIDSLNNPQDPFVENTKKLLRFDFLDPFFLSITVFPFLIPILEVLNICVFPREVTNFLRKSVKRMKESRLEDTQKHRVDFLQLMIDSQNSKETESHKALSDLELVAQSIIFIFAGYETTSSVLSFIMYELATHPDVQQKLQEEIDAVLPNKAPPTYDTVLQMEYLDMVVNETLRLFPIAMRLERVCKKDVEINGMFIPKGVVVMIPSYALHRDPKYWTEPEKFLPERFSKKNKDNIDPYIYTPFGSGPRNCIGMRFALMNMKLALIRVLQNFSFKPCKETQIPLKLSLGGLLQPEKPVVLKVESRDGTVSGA
Chain of Cytochrome P450 2C9 (P11712 whole entry): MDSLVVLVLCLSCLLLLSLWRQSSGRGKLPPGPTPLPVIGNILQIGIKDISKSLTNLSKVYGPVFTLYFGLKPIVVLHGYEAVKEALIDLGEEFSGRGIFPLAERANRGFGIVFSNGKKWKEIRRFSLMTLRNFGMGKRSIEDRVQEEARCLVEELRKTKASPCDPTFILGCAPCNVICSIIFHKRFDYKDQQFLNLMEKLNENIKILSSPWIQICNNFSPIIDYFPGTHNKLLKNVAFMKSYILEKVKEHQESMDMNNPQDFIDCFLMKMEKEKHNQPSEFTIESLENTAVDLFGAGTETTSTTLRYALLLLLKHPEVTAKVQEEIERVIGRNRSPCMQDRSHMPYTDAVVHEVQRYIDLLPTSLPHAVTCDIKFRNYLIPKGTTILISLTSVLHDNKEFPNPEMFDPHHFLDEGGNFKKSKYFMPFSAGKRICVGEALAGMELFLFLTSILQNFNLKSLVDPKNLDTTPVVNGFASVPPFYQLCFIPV
Chain of Cytochrome P450 2C19 (P33261 whole entry): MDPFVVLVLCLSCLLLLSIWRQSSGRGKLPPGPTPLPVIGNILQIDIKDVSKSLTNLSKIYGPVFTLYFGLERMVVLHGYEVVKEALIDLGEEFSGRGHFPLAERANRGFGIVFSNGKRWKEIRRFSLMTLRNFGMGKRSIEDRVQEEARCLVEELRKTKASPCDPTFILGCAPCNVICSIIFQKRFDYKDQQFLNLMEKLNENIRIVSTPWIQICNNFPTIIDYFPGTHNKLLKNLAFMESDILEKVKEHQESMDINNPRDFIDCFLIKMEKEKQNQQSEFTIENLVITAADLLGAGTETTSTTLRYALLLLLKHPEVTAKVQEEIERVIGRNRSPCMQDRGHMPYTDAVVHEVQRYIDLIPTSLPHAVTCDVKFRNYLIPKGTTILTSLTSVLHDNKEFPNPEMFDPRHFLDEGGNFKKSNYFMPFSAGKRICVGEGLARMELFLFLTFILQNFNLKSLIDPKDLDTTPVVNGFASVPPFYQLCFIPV
Chain of Cytochrome P450 2D6 (P10635 whole entry): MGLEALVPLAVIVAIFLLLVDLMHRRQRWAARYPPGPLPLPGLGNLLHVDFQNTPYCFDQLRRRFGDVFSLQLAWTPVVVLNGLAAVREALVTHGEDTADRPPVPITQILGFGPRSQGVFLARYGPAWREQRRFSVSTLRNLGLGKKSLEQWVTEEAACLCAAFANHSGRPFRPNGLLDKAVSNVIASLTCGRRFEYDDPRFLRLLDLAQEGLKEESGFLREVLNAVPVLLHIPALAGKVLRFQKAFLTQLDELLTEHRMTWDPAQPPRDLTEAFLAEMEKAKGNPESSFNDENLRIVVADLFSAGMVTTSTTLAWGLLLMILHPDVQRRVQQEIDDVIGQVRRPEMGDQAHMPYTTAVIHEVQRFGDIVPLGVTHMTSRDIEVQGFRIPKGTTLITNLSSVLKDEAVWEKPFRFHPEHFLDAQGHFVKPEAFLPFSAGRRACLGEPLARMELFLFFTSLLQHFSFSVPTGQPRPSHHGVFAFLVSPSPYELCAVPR

Row | Compound | EC50 [1] | Papp [3] | solubility [5] | EC50 [8] | EC50 [11] | EC50 [14] | EC50 [15] | CC50 [16] | IC50 [17] | Stability [18] | Stability [19] | also measured
1 | CCN1CC2CC(C1)N2C(=O)[C@]12C[C@H]1c1cc(OC)ccc1-c1c(C3CCCCC3)c3ccc(C(=O)NS(=O)(=O)N(C)C)cc3n1C2 | > 50000 nM | 27 ×10⁻⁶ cm/s | 450 µg/mL (≈ 682 µM) | 4 nM | 4 nM | – | – | – | – | – | – | EC50 [2]: 9000 nM; EC50 [4]: 29000 nM; EC50 [6]: 6000 nM; EC50 [7]: > 40000 nM; EC50 [9]: > 40000 nM; EC50 [10]: > 40000 nM; EC50 [12]: 19000 nM; EC50 [13]: > 40000 nM
2 | CN(C)S(=O)(=O)NC(=O)c1ccc2c(C3CCCCC3)c3n(c2c1)C[C@@]1(C(=O)N2CCOCC2)C[C@H]1c1ccccc1-3 | – | – | – | 26 nM | 31 nM | 218 nM | 240 nM | > 10000 nM | 27 nM | – | – | –
3 | O=C(O)c1ccc2c(C3CCCCC3)c3n(c2c1)C[C@]1(C(=O)N2CCOCC2)C[C@@H]1c1ccccc1-3 | – | – | – | 472 nM | 336 nM | – | 890 nM | > 10000 nM | 93 nM | – | – | –
4 | O=C(O)c1ccc2c(C3CCCCC3)c3n(c2c1)C[C@@]1(C(=O)N2CCOCC2)C[C@H]1c1ccccc1-3 | – | – | – | 41 nM | 51 nM | 484 nM | 380 nM | > 10000 nM | 22 nM | – | – | –
5 | CN(C)S(=O)(=O)NC(=O)c1ccc2c(C3CCCCC3)c3n(c2c1)C[C@]1(C(=O)N2CCOCC2)C[C@@H]1c1ccccc1-3 | – | – | – | 259 nM | 143 nM | – | 630 nM | > 10000 nM | 165 nM | – | – | –
6 | COc1ccc2c(c1)C1CC1(C(=O)N1C3CNCC1C3)Cn1c-2c(C2CCCCC2)c2ccc(C(=O)NS(=O)(=O)N(C)C)cc21 (racemic) | > 50000 nM | 6 ×10⁻⁶ cm/s | – | 23 nM | 80 nM | 94 nM | – | > 10000 nM | – | 97% | 100% | EC50 [2]: > 40000 nM; EC50 [6]: 32000 nM; EC50 [7]: > 40000 nM; EC50 [9]: > 40000 nM; EC50 [10]: > 40000 nM; EC50 [12]: > 50000 nM; EC50 [13]: > 40000 nM
7 | COc1ccc2c(c1)C1CC1(C(=O)N1C3CC1CN(Cc1ccccc1)C3)Cn1c-2c(C2CCCCC2)c2ccc(C(=O)NS(=O)(=O)N(C)C)cc21 (racemic) | 2000 nM | 56 ×10⁻⁶ cm/s | – | 35 nM | 162 nM | – | – | > 10000 nM | – | 80% | 100% | EC50 [2]: 13000 nM; EC50 [6]: > 80000 nM; EC50 [7]: 7000 nM; Emax [20]: 22%; EC50 [9]: > 13000 nM; EC50 [10]: 31000 nM; EC50 [12]: 22000 nM; EC50 [13]: > 40000 nM
8 | CN(C)S(=O)(=O)NC(=O)c1ccc2c(C3CCCCC3)c3n(c2c1)CC1(C(=O)N2CCOCC2)CC1c1ccccc1-3 (racemic) | – | – | – | 44 nM | 82 nM | 821 nM | 165 nM | > 10000 nM | 94 nM | – | – | –
9 | COc1ccc2c(c1)C1CC1(C(=O)N1CCOCC1)Cn1c-2c(C2CCCCC2)c2ccc(C(=O)NS(=O)(=O)N(C)C)cc21 (racemic) | – | – | – | 54 nM | 61 nM | 300 nM | 385 nM | > 10000 nM | 22 nM | – | – | –
10 | COc1ccc2c(c1)C1CC1(C(=O)N1CC(C)(O)C1)Cn1c-2c(C2CCCCC2)c2ccc(C(=O)NS(=O)(=O)N(C)C)cc21 (racemic) | > 50000 nM | 30 ×10⁻⁶ cm/s | 93 µg/mL (≈ 150 µM) | 14 nM | 20 nM | 56 nM | – | > 10000 nM | – | 81% | 85% | concentration at 4 h [21]: 25 nM; concentration at 4 h [22]: 9600 nM; AUC(0-t) at 4 h [23]: 9.8 µM·h; concentration at 4 h [24]: 29 nM; AUC(0-t) at 4 h [25]: 0.139 µM·h; clearance [26]: 14 mL/min/kg; concentration at 4 h [27]: 3700 nM
11 | COc1ccc2c(c1)C1CC1(C(=O)N1C[C@@H](C)N(C)[C@@H](C)C1)Cn1c-2c(C2CCCCC2)c2ccc(C(=O)NS(=O)(=O)N(C)C)cc21 (mixture of isomers) | > 50000 nM | 48 ×10⁻⁶ cm/s | 34 µg/mL (≈ 51.4 µM) | 14 nM | 17 nM | 46 nM | – | 8000 nM | – | 88% | 99% | concentration at 4 h [21]: 158 nM; concentration at 4 h [22]: 1860 nM; AUC(0-t) at 4 h [23]: 4.29 µM·h; concentration at 4 h [24]: 67 nM; AUC(0-t) at 4 h [25]: 0.516 µM·h; clearance [26]: 29 mL/min/kg; concentration at 4 h [27]: 9700 nM
12 | COc1ccc2c(c1)C1CC1(C(=O)N1C[C@@H](C)N(C(C)=O)[C@@H](C)C1)Cn1c-2c(C2CCCCC2)c2ccc(C(=O)NS(=O)(=O)N(C)C)cc21 (mixture of isomers) | > 50000 nM | 48 ×10⁻⁶ cm/s | 17 µg/mL (≈ 24.6 µM) | 24 nM | 38 nM | 35 nM | – | > 10000 nM | – | 100% | 93% | concentration at 4 h [21]: 14 nM; concentration at 4 h [22]: 126 nM; AUC(0-t) at 4 h [23]: 3.84 µM·h; concentration at 4 h [24]: 9 nM; AUC(0-t) at 4 h [25]: 0.277 µM·h; clearance [26]: 37 mL/min/kg; concentration at 4 h [27]: 345 nM
